# Reference: the supplement of paper PMC5412046
# How the values were obtained:
# SB.mhdgc-1 = test: AC50 for growth inhibition (viability) (log10 M); higher = less potent; conditions: SB.mhdgc-1 (hereditary c.1380delA CDH1 gastric cancer)
# Summary of the method: (§1)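 Gastric cancer cells from hereditary or sporadic patients, 500 per 1536 well, were exposed to compound for 48 h over 11 threefold dilutions from a final 46 μM. CellTiter-Glo luminescence, read on a ViewLux, measured viability, which was normalised to DMSO. The log half-maximal activity concentration came from four-parameter fits, and only high-quality curve classes were kept.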
# SB.msgc-1 = test: as above; conditions: SB.msgc-1 (sporadic gastric cancer)
# Summary of the method: as §1
SMILES,AC50 for growth inhibition (log10 M) (SB.mhdgc-1),AC50 for growth inhibition (log10 M) (SB.msgc-1)
CC1=CC=C(C=C1)\C2=N\C3=CC=C(Cl)C=C3OC2 [AR7],-5.03,-5.03
Cn1cc(-c2ccc3nnc(Sc4ccc5ncccc5c4)n3n2)cn1 [SGX-523],-5.13,-4.78
O=C1NC(=O)/C(=C/c2ccc3nccnc3c2)S1,-4.84,-4.89
COc1cc(Oc2ccnc3cc(OC)c(OC)cc23)ccc1NC(=O)NC(C)c1nccs1 (stereo not given),-4.73,-4.78
CN(c1ncccc1CNc1nc(Nc2ccc3c(c2)CC(=O)N3)ncc1C(F)(F)F)[S+](C)(=O)[O-],-5.18,-5.13
Cc1c(Cn2c(C)nc3c(C(=O)O)cc(N4CCOCC4)cc32)cccc1C(F)(F)F,-7.48,-5.88
CCc1cnn2c(NCc3ccc[n+]([O-])c3)cc(N3CCCC[C@H]3CCO)nc12 [Dinaciclib],-8.03,-7.88
Cc1cc2c(F)c(Oc3ncnn4cc(OC[C@@H](C)O)c(C)c34)ccc2[nH]1 [Brivanib],-4.98,-4.73
CC(O)(C[S+](=O)([O-])c1ccc(F)cc1)C(=O)Nc1ccc(C#N)c(C(F)(F)F)c1 (stereo not given) [Bicalutamide],-6.43,-5.98
COc1cc2nccc(Oc3ccc(NC(=O)NC4CC4)c(Cl)c3)c2cc1C(N)=O [Lenvatinib],-6.38,-5.48
COC1=CC=C2/C3=N/CCN3\C(=N/C2=C1OC)NC(=O)C4=CC=CN=C4 [PIK-90],-5.33,-4.98
COc1ccc2[nH]cc(CCNC(C)=O)c2c1 [Melatonin],-5.33,-5.83
C=CC(=O)Nc1cc2c(Nc3ccc(F)c(Cl)c3)ncnc2cc1OCCCN1CCOCC1 [Canertinib],-4.73,-5.18
CC1(C)CCC[C@]2(C)[C@H]3CC(=O)O[C@]3(C)CC[C@@H]12 [Sclareolide],-5.03,-4.78
NC\1=N\C(=O)N(\C=C1F)[C@H]2C[C@H](O)[C@@H](CO)O2,-8.38,-6.53
OC1=CC=C(C=C1)\C2=C\C(=O)C3=C(O2)C=C(O)C=C3O [Apigenin],-5.08,-4.83
O=C(C=CC#Cc1cccc(N[S+](=O)([O-])c2ccccc2)c1)NO [Oxamflatin],-5.28,-5.58
COc1ccc2c(c1OC)C(=O)O[C@H]2[C@H]1c2c(cc3c(c2OC)OCO3)CCN1C [Noscapine],-6.78,-6.63

SMILES,AC50 for growth inhibition (log10 M) (SB.mhdgc-1),AC50 for growth inhibition (log10 M) (SB.msgc-1)
CC[C@H](C)[N]1C=C(C)C2=C1C=C(C=C2C(=O)NC\C3=C(C)\C=C(\C)NC3=O)C4=CC=C(N=C4)N5CCNCC5 [GSK126],-5.03,-4.98
CCCCCCNC(=O)N1\C=C(F)/C(=O)NC1=O [Carmofur],-6.33,-5.48
COc1cccc2c1C(=O)c1c(O)c3c(c(O)c1C2=O)C[C@@](O)(C(C)=O)C[C@@H]3O[C@H]1C[C@H](N)[C@H](O)[C@H](C)O1 [Daunorubicin],-7.28,-6.93
NC/1=N/C(=O)C2=C(N1)[N](C=N2)[C@@H]3C[C@H](O)[C@@H](CO)C3=C [Entecavir],-4.78,-5.28
Cc1cccc(Nc2nc(N[C@@H]3CCCC[C@@H]3N)ncc2C(N)=O)c1,-4.73,-4.63
Oc1cccc(-c2nc(N3CCOCC3)c3oc4ncccc4c3n2)c1 [PI-103],-6.12,-4.92
CN(CC(=O)N(Cc1ccc(C2CCCCC2)cc1)c1ccc(C(=O)O)c(O)c1)[S+](=O)([O-])c1c(F)c(F)c(F)c(F)c1F [BP-1-102],-4.58,-4.73
N[S+](=O)([O-])c1ccc(Nc2nc(OCC3CCCCC3)c3[nH]cnc3n2)cc1 [NU-6102],-4.68,-4.83
CN(C)CCCN\C1=C\2C(=O)N(C)C(=O)\N=C2N(C)C3=C1C=CC=C3,-5.73,-4.73
N#CC(=C(/N)Sc1ccccc1N)/C(C#N)=C(\N)Sc1ccccc1N [U-0126],-5.88,-4.73
COC1=CC(c2cc3ccccc3[nH]2)=N/C1=C/c1[nH]c(C)cc1C [Obatoclax],-5.43,-5.33
CC/1=C/C(=O)N(O)/C(=C1)C2CCCCC2 [ciclopirox],-4.73,-5.43
OC1=CC2=C(C(=C1)O)C(=O)\C(=C(/O2)C3=CC(=C(O)C=C3)O)O [Quercetine],-5.13,-4.68
Cc1c(C(=O)Nc2cccc(C(F)(F)F)c2)cc(-c2ccccc2)n1CCCN1CCOCC1,-4.78,-4.83
Cc1c(CCOc2ccc(C(=O)O)cc2)c2cc(Cl)ccc2n1C(c1ccccc1)c1ccccc1 [CDIBA],-4.73,-4.98
Nc1ccccc1NC(=O)c1ccc(CNC(=O)OCc2cccnc2)cc1 [Entinostat],-4.83,-5.88
O=C1NC(=O)/C(=C/c2ccc3nccc(-c4ccncc4)c3c2)S1 [GSK-615],-6.33,-6.03
